How the values were obtained:
Experiment in all cases: relative viability (nuclei count vs DMSO), 5 days (fraction); higher = more cells survive
SK-MES-1 = tested on: SK-MES-1
In short: (§1)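 A single step with final 0.05% Triton X-100, 1% formaldehyde and 1 ug/ml Hoechst fixed the cells and stained nuclei 5 days after treatment. Lung cancer cell lines in 1536-well plates had been treated by pin tool the day after seeding with one drug alone or a fixed anchor-drug dose plus five library-drug doses (not always all listed) in √10 steps, and nuclei were counted on 4× images. Relative viability is the ratio of nuclei in treated wells to nuclei in vehicle wells, taken as the median of duplicate plates.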

H3255 = tested on: H3255
In short: as §1

COR-L23 = tested on: COR-L23
In short: as §1

HCC-44 = tested on: HCC-44
In short: as §1

NCI-H1563 = tested on: NCI-H1563
In short: as §1

NCI-H2087 = tested on: NCI-H2087
In short: as §1

NCI-H1651 = tested on: NCI-H1651
In short: as §1

LU99A = tested on: LU99A
In short: as §1

EMC-BAC-2 = tested on: EMC-BAC-2
In short: as §1

NCI-H838 = tested on: NCI-H838
In short: as §1

NCI-H2085 = tested on: NCI-H2085
In short: as §1

NCI-H650 = tested on: NCI-H650
In short: as §1

HCC-827 = tested on: HCC-827
In short: as §1

ChaGo-K-1 = tested on: ChaGo-K-1
In short: as §1

NCI-H1944 = tested on: NCI-H1944
In short: as §1

EPLC-272H = tested on: EPLC-272H
In short: as §1

NCI-H2405 = tested on: NCI-H2405
In short: as §1

NCI-H2023 = tested on: NCI-H2023
In short: as §1

NCI-H520 = tested on: NCI-H520
In short: as §1

NCI-H1793 = tested on: NCI-H1793
In short: as §1

NCI-H1395 = tested on: NCI-H1395
In short: as §1

LCLC-103H = tested on: LCLC-103H
In short: as §1

`O=c1cc(N2CCOCC2)oc2c(-c3cccc4c3sc3ccccc34)cccc12` + COc1cccc2cc(-c3nc([C@H]4CC[C@H](C(=O)O)CC4)n4ncnc(N)c34)[nH]c12 [OSI-027] (partner 0.5 µM) gave a relative viability (SK-MES-1; first compound 0.01 µM) of 0.613, a relative viability (SK-MES-1; first compound 0.03162 µM) of 0.685 and a relative viability (SK-MES-1; first compound 0.1 µM) of 0.531. The relative viability (SK-MES-1; first compound 0.3162 µM) was 0.633, the relative viability (SK-MES-1; first compound 1 µM) was 0.579 and the relative viability (H3255; first compound 0.01 µM) was 0.659. It also gave a relative viability (H3255; first compound 0.03162 µM) of 0.503, a relative viability (H3255; first compound 0.1 µM) of 0.584 and a relative viability (H3255; first compound 0.3162 µM) of 0.668. It also gave a relative viability (H3255; first compound 1 µM) of 0.536, a relative viability (COR-L23; first compound 0.01 µM) of 0.748 and a relative viability (COR-L23; first compound 0.03162 µM) of 0.774. For the same compound, the relative viability (COR-L23; first compound 0.1 µM) was 0.748, the relative viability (COR-L23; first compound 0.3162 µM) was 0.796 and the relative viability (COR-L23; first compound 1 µM) was 0.834. It also gave a relative viability (HCC-44; first compound 0.01 µM) of 0.524, a relative viability (HCC-44; first compound 0.03162 µM) of 0.504 and a relative viability (HCC-44; first compound 0.1 µM) of 0.588. It also gave a relative viability (HCC-44; first compound 0.3162 µM) of 0.694, a relative viability (HCC-44; first compound 1 µM) of 0.463 and a relative viability (NCI-H1563; first compound 0.01 µM) of 0.695. The relative viability (NCI-H1563; first compound 0.03162 µM) was 0.741, the relative viability (NCI-H1563; first compound 0.1 µM) was 0.773 and the relative viability (NCI-H1563; first compound 0.3162 µM) was 0.794. For the same compound, the relative viability (NCI-H1563; first compound 1 µM) was 0.697, the relative viability (NCI-H2087; first compound 0.01 µM) was 0.569 and the relative viability (NCI-H2087; first compound 0.03162 µM) was 0.637. It also gave a relative viability (NCI-H2087; first compound 0.1 µM) of 0.544, a relative viability (NCI-H2087; first compound 0.3162 µM) of 0.416 and a relative viability (NCI-H2087; first compound 1 µM) of 0.599. For the same compound, the relative viability (NCI-H1651; first compound 0.01 µM) was 0.593, the relative viability (NCI-H1651; first compound 0.03162 µM) was 0.704 and the relative viability (NCI-H1651; first compound 0.1 µM) was 0.668. It also gave a relative viability (NCI-H1651; first compound 0.3162 µM) of 0.654, a relative viability (NCI-H1651; first compound 1 µM) of 0.636 and a relative viability (LU99A; first compound 0.01 µM) of 0.277. The relative viability (LU99A; first compound 0.03162 µM) was 0.337, the relative viability (LU99A; first compound 0.1 µM) was 0.323 and the relative viability (LU99A; first compound 0.3162 µM) was 0.311. For the same compound, the relative viability (LU99A; first compound 1 µM) was 0.347, the relative viability (EMC-BAC-2; first compound 0.01 µM) was 0.409 and the relative viability (EMC-BAC-2; first compound 0.03162 µM) was 0.427. It also gave a relative viability (EMC-BAC-2; first compound 0.1 µM) of 0.419, a relative viability (EMC-BAC-2; first compound 0.3162 µM) of 0.423 and a relative viability (EMC-BAC-2; first compound 1 µM) of 0.385. It also gave a relative viability (NCI-H838; first compound 0.01 µM) of 0.401, a relative viability (NCI-H838; first compound 0.03162 µM) of 0.397 and a relative viability (NCI-H838; first compound 0.1 µM) of 0.389. For the same compound, the relative viability (NCI-H838; first compound 0.3162 µM) was 0.42, the relative viability (NCI-H838; first compound 1 µM) was 0.374 and the relative viability (NCI-H2085; first compound 0.01 µM) was 0.946. For the same compound, the relative viability (NCI-H2085; first compound 0.03162 µM) was 0.768, the relative viability (NCI-H2085; first compound 0.1 µM) was 0.756 and the relative viability (NCI-H2085; first compound 0.3162 µM) was 0.827. It also gave a relative viability (NCI-H2085; first compound 1 µM) of 0.8, a relative viability (NCI-H650; first compound 0.03162 µM) of 0.591 and a relative viability (NCI-H650; first compound 0.1 µM) of 0.391. It also gave a relative viability (NCI-H650; first compound 0.3162 µM) of 0.598, a relative viability (NCI-H650; first compound 1 µM) of 0.493 and a relative viability (HCC-827; first compound 0.01 µM) of 0.853. The relative viability (HCC-827; first compound 0.03162 µM) was 0.813, the relative viability (HCC-827; first compound 0.1 µM) was 0.744 and the relative viability (HCC-827; first compound 0.3162 µM) was 0.772. The relative viability (HCC-827; first compound 1 µM) was 0.791, the relative viability (ChaGo-K-1; first compound 0.01 µM) was 0.488 and the relative viability (ChaGo-K-1; first compound 0.03162 µM) was 0.681. It also gave a relative viability (ChaGo-K-1; first compound 0.1 µM) of 0.363, a relative viability (ChaGo-K-1; first compound 0.3162 µM) of 0.706 and a relative viability (ChaGo-K-1; first compound 1 µM) of 0.628. For the same compound, the relative viability (NCI-H1944; first compound 0.01 µM) was 0.443, the relative viability (NCI-H1944; first compound 0.03162 µM) was 0.436 and the relative viability (NCI-H1944; first compound 0.1 µM) was 0.429. For the same compound, the relative viability (NCI-H1944; first compound 0.3162 µM) was 0.44, the relative viability (NCI-H1944; first compound 1 µM) was 0.391 and the relative viability (EPLC-272H; first compound 0.01 µM) was 0.33. It also gave a relative viability (EPLC-272H; first compound 0.03162 µM) of 0.296, a relative viability (EPLC-272H; first compound 0.3162 µM) of 0.332 and a relative viability (EPLC-272H; first compound 1 µM) of 0.314. It also gave a relative viability (NCI-H2405; first compound 0.01 µM) of 0.717, a relative viability (NCI-H2405; first compound 0.03162 µM) of 0.615 and a relative viability (NCI-H2405; first compound 0.1 µM) of 0.564. It also gave a relative viability (NCI-H2405; first compound 0.3162 µM) of 0.663, a relative viability (NCI-H2405; first compound 1 µM) of 0.685 and a relative viability (NCI-H2023; first compound 0.01 µM) of 0.456. For the same compound, the relative viability (NCI-H2023; first compound 0.03162 µM) was 0.536, the relative viability (NCI-H2023; first compound 0.1 µM) was 0.424 and the relative viability (NCI-H2023; first compound 0.3162 µM) was 0.394. For the same compound, the relative viability (NCI-H2023; first compound 1 µM) was 0.411, the relative viability (NCI-H520; first compound 0.01 µM) was 0.284 and the relative viability (NCI-H520; first compound 0.03162 µM) was 0.299. The relative viability (NCI-H520; first compound 0.1 µM) was 0.235, the relative viability (NCI-H520; first compound 0.3162 µM) was 0.229 and the relative viability (NCI-H520; first compound 1 µM) was 0.323. It also gave a relative viability (NCI-H1793; first compound 0.01 µM) of 0.33, a relative viability (NCI-H1793; first compound 0.1 µM) of 0.287 and a relative viability (NCI-H1793; first compound 0.3162 µM) of 0.251. For the same compound, the relative viability (NCI-H1793; first compound 1 µM) was 0.247, the relative viability (NCI-H1395; first compound 0.01 µM) was 0.574 and the relative viability (NCI-H1395; first compound 0.03162 µM) was 0.695. It also gave a relative viability (NCI-H1395; first compound 0.1 µM) of 0.488, a relative viability (NCI-H1395; first compound 0.3162 µM) of 0.68 and a relative viability (NCI-H1395; first compound 1 µM) of 0.707. The relative viability (LCLC-103H; first compound 0.01 µM) was 0.446, the relative viability (LCLC-103H; first compound 0.03162 µM) was 0.462 and the relative viability (LCLC-103H; first compound 0.1 µM) was 0.513. For the same compound, the relative viability (LCLC-103H; first compound 0.3162 µM) was 0.474 and the relative viability (LCLC-103H; first compound 1 µM) was 0.419.
